Measured values published in article PMC9138599, “Clade-Specific Alterations within the HIV-1 Capsid Protein with Implications for Nuclear Translocation” (Biomolecules, 2022).
Like-named read-outs stand apart in the source and are kept apart here.

Assays:
[1] = system: HIV-1 CA hexamer from clade A1 (92UG037.1); assay type: binding; settings: SPR
[2] = system: HIV-1 CA hexamer from clade A2 (CDKTB48); assay type: binding; settings: SPR
[3] = target: HIV-1 CA hexamer from clade B (NL4-3) (Human immunodeficiency virus type 1 group M subtype B, UniProt P12493, A146C/E177C/M317A/W316A); test: SPR binding to immobilized HIV-1 CA hexamer, clade B
[4] = target: HIV-1 CA hexamer from clade C (92BR025.8) (Human immunodeficiency virus type 1 group M subtype C, UniProt O12157, E175C/M315A/P144C/W314A); test: SPR binding to immobilized HIV-1 CA hexamer, clade C
[5] = system: HIV-1 CA hexamer from clade D (94UG114.1); assay type: binding; settings: SPR
[6] = system: monomeric HIV-1 CA protein, clade A1 (92UG037.1); test: In vitro CA assembly (turbidity) assay, clade A1; assay type: biochemical; settings: 3 M NaCl
Method: (§1) In vitro assembly of the monomeric HIV-1 CA proteins was performed using a modification of the standard CA turbidity assembly assay [62, 63, 64, 65, 66]. This assay relies upon the fact that the addition of high salt to HIV-1 CA protein causes self-assembly that can be monitored and quantified as the increase in turbidity over time, as described in Kortagere et al. [61, 67]. Briefly, 75 µL of buffer was prepared, containing a final concentration of 50 mM NaH2PO4 pH 8.0 and various concentrations (1–5 M) of NaCl to assess the optimal concentration of salt needed to initiate assembly after the addition of the purified clade variants. To initiate the assembly reaction, 25 µL of 120 µM purified capsid was added to a final CA concentration of 30 µM (including matching DMSO concentrations). In the presence of compounds, the in vitro reaction contained 50 mM NaH2PO4 pH 8.0, 30 µM CA protein, 50 µM inhibitor, 3% DMSO, and 3 M NaCl. Readings were then taken at 350 nm every 30 s for 20 min to measure the increase in turbidity over time. The OD at 350 nm over the first 2 min was then plotted and fit with a linear regression to calculate the initial velocity (AU/min) of CA assembly.

[7] = system: monomeric HIV-1 CA protein, clade A2 (CDKTB48); test: In vitro CA assembly (turbidity) assay, clade A2; assay type: biochemical; settings: 3 M NaCl
Method: as §1

[8] = target: T1, monomeric HIV-1 CA protein, clade C (92BR025.8) (Human immunodeficiency virus type 1 group M subtype C, UniProt O12157); test: In vitro CA assembly (turbidity) assay, clade C; assay type: biochemical; settings: clade C CA 30 µM, 50 µM inhibitor, 3 M NaCl, first 120 s, n = 3
T1 construct: hexahistidine (C); made in house; host or cells: E. coli BL21 (DE3) RIL
Method: as §1

[9] = system: monomeric HIV-1 CA protein, clade D (94UG114.1); test: In vitro CA assembly (turbidity) assay, clade D; assay type: biochemical; settings: clade D CA 30 µM, 50 µM inhibitor, 3 M NaCl, first 120 s, n = 3
Method: as §1

[10] = target: monomeric HIV-1 CA protein, clade B (NL4-3) (Human immunodeficiency virus type 1 group M subtype B, UniProt P12493)
Method: as §1

[11] = target: tri-hexameric interface of CA hexamers; parameters: method as in PMID 34835048; settings: RRR patch binding into tri-hexameric interface; cited from earlier work
[12] = Langmuir isotherm equilibrium fit, 25 °C, n = 3, read-out: KD Equilibrium
[13] = global fit, n = 3, read-out: KD Kinetic/Global
[14] = SPR, clade B (NL4.3) hexamer, 1:1 binding model, n = 3

HIV-1 CA hexamer from clade C (92BR025.8), sequence (O12157 131-361 P144C/E175C/W314A/M315A): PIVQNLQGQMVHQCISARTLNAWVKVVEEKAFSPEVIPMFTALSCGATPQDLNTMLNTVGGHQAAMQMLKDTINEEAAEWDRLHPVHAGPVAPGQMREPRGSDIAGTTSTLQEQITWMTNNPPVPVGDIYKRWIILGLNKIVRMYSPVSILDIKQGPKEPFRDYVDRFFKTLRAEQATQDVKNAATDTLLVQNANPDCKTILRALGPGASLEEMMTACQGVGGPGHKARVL
T1 sequence (O12157 131-361): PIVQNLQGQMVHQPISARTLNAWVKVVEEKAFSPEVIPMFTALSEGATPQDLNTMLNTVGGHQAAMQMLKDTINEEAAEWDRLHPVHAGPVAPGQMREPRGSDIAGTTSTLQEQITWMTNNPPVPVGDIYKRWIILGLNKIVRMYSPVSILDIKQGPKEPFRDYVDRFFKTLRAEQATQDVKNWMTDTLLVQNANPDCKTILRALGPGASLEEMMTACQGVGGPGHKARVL

PF-74
koff ([1]; 1:1 binding model, n = 3): 0.647 s⁻¹
kon ([1]; 1:1 binding model, n = 3): 615000 M⁻¹ s⁻¹
Kd [1, 12]: 0.716 µM
Kd [1, 13]: 0.947 µM
koff ([2]; 1:1 binding model, n = 3): 0.0916 s⁻¹
kon ([2]; 1:1 binding model, n = 3): 669000 M⁻¹ s⁻¹
Kd [2, 12]: 0.138 µM
Kd [2, 13]: 0.139 µM
fold tighter binding to clade B protein compared to clade A1 protein ([3]; SPR data, clade B vs clade A1): ~ 20 fold
koff [3, 14]: 0.0363 s⁻¹
kon [3, 14]: 756000 M⁻¹ s⁻¹
koff ([4]; 1:1 binding model, n = 3): 0.0754 s⁻¹
kon ([4]; 1:1 binding model, n = 3): 228000 M⁻¹ s⁻¹
Kd [4, 12]: 0.354 µM
Kd [4, 13]: 0.33 µM
koff ([5]; 1:1 binding model, n = 3): 0.0395 s⁻¹
kon ([5]; 1:1 binding model, n = 3): 773000 M⁻¹ s⁻¹
Kd [5, 12]: 0.051 µM
Kd [5, 13]: 0.051 µM
fold increase in assembly rate (initial velocity) vs Apo ([6]; clade A1, 50 µM inhibitor, initial 120 s): 1.5 fold
Initial Velocity PF-74 ([6]; clade A1 CA 30 µM, 50 µM inhibitor, first 120 s, n = 3): 0.034 ± 0.001 AU/min
fold increase in assembly rate (initial velocity) vs Apo ([7]; clade A2, 50 µM inhibitor, initial 120 s): 1.3 fold
Initial Velocity PF-74 ([7]; clade A2 CA 30 µM, 50 µM inhibitor, first 120 s, n = 3): 0.017 ± 0.002 AU/min
Initial Velocity PF-74 [8]: 0.039 ± 0.007 AU/min
Initial Velocity PF-74 [9]: 0.050 ± 0.008 AU/min
Initial Velocity PF-74 [10]: 0.043 ± 0.009 AU/min

RRR patch: highly positively charged RRR motif at the C-terminus of NUP-153 binding the tri-hexameric interface of CA (FSGRKIKTAVRRRK; UniProt P49790 1462-1475, looked up, fragment)
Kd [11]: 0.8 µM

CC(C)[C@H](NC(=O)CNC(=O)[C@H](CO)NC(=O)[C@@H]1CCCN1C(=O)[C@H](CO)NC(=O)[C@H](CC(N)=O)NC(=O)[C@H](CC(N)=O)NC(=O)[C@@H](N)[C@@H](C)O)C(=O)N[C@@H](Cc1ccccc1)C(=O)N[C@H](C(=O)N[C@@H](Cc1ccccc1)C(=O)NCC(=O)N[C@@H](C)C(=O)N[C@@H](CC(N)=O)C(=O)N[C@@H](CO)C(=O)N[C@@H](CO)C(=O)N[C@H](C(=O)O)[C@@H](C)O)[C@@H](C)O [NUP-153]
Kd ([4]; Langmuir isotherm equilibrium fit, n = 3, read-out: KD Equilibrium): 503 µM
Kd [4, 13]: 881 µM
